The results in this text go back to patent US20080076664A1, “Fungicidal Compositions” (priority 2004, published 2008).

For test [1], the system named is Alternaria solani. As to the kind of experiment: Fungal growth assay, control of Alternaria solani (Example B-4 a). The class given is cell-based. The source says:
(§1) The action to be expected E for a given active ingredient combination obeys the so-called COLBY formula and can be calculated as follows (COLBY, S. R. “Calculating synergistic and antagonistic responses of herbicide combination”. Weeds, Vol. 15, pages 20-22; 1967):
(§2) According to COLBY, the expected (additive) action of active ingredients A)+B) using p+q ppm of active ingredient is
(§3) If the action actually observed (O) is greater than the expected action (E), then the action of the combination is super-additive, i.e. there is a synergistic effect. In mathematical terms the synergism factor SF corresponds to O/E. In the agricultural practice an SF of ≧1.2 indicates significant improvement over the purely complementary addition of activities (expected activity), while an SF of ≦0.9 in the practical application routine signals a loss of activity compared to the expected activity.
Conidia—harvested from a freshly grown colony—of the fungus were directly mixed into nutrient broth (PDB potato dextrose broth). After placing a (DMSO) solution of the test compounds into a microtiter plate (96-well format) the nutrient broth containing the fungal spores was added. […] The fungicide interactions in the combinations are calculated according to COLBY method.

The test system of test [2] is Leptosphaeria nodorum. As to the kind of experiment: Fungal growth assay, control of Leptosphaeria nodorum (Example B-8). The class given is cell-based.
Excerpt: as §1, §2, §3
Action Against Leptosphaeria nodorum (Glume Blotch)—Fungal Growth Assay
Conidia of the fungus from cryogenic storage were directly mixed into nutrient broth (PDB potato dextrose broth). After placing a (DMSO) solution of the test compounds into a microtiter plate (96-well format) the nutrient broth containing the fungal spores was added. […] The fungicide interactions in the combinations are calculated according to COLBY method.

The mark [3] stands for this setting: component B) alone, 0.022 ppm [mg/L].
Setting [4] is: component B) alone, 0.067 ppm [mg/L].
Where [5] appears, read: component B) alone, 0.002 ppm [mg/L].
The mark [6] stands for this setting: component B) alone, 0.007 ppm [mg/L].
[7] abbreviates: component B) alone, 0.600 ppm [mg/L].
Setting [8] is: Cpd Ia alone, 0.0001 ppm [mg/L].
[9] abbreviates: Cpd Ia alone, 0.0003 ppm [mg/L].
Setting [10] is: Cpd Ia alone, 0.0074 ppm [mg/L].

Molecules are shown by their SMILES. Several values for one entry are separate records, joined by “and”; a condition that tells them apart may be missing. Equal entries are not always repeated.

As to `CO/C=C(/C(=O)OC)c1ccccc1Oc1cc(Oc2ccccc2C#N)ncn1` [Azoxystrobin], the “Observed control in % (% Cobs)” value in test [1] (setting [3]) is recorded as 0%; in test [1] (setting [4]) it was 31%; in test [2] (setting [5]), 5%; in test [2] (setting [6]), 14%.

With `N#Cc1c(Cl)c(Cl)c(Cl)c(C#N)c1Cl` [Chlorotalonil, Chlorothalonil], the “Observed control in % (% Cobs)” value in test [1] (setting [5]) came out at 9%; in test [1] (setting [7]), 6%; in test [2] (setting [5]), 1%; in test [2] (setting [6]), 0%; in test [2] (setting [3]), 0%; in test [2] (setting [4]), 6%.

As to `Cn1cc(C(=O)Nc2ccccc2-c2ccc(C#CC(C)(C)C)cc2)c(C(F)F)n1` [Cpd Ia], the “Observed control in % (% Cobs)” value in test [1] (setting [8]) is 6% and 0%; in test [1] (setting [9]) it was 6% and 0% and 4%; in test [1] (Cpd Ia alone, 0.0008 ppm [mg/L]), 0%; in test [1] (setting [10]) it was 40% and 46% and 27%; in test [1] (Cpd Ia alone, 0.0667 ppm [mg/L]), 50% and 60%; in test [2] (setting [8]) it was 0% and 2%. The “Observed control in % (% Cobs)” value was 0% in test [2] (setting [9]); 0% in test [2] (Cpd Ia alone, 0.0025 ppm [mg/L]); 0% in test [2] (setting [10]); 9% and 0% and 5% and 6% in test [2] (Cpd Ia alone, 0.0222 ppm [mg/L]); 32% and 30% in test [2] (Cpd Ia alone, 0.2000 ppm [mg/L]).

Turning to `CC(C1CC1)C(O)(Cn1cncn1)c1ccc(Cl)cc1` (stereo not drawn) [Cyproconazole], the “Observed control in % (% Cobs)” value in test [1] (setting [5]) came out at 3%; in test [1] (setting [6]) it was 0%; in test [1] (setting [7]) it was 15%; in test [2] (setting [5]), 3%; in test [2] (setting [6]), 0%; in test [2] (setting [4]), 4%.

Turning to `Cc1cc(C2CC2)nc(Nc2ccccc2)n1` [Cyprodinil], the “Observed control in % (% Cobs)” value in test [1] (setting [5]) was 3%; in test [1] (setting [6]) it was 0%; in test [1] (setting [3]), 0%; in test [1] (setting [4]), 30%.

For `CC(Cc1ccc(C(C)(C)C)cc1)CN1CCCCC1` (stereo not drawn) [Fenpropidin], the “Observed control in % (% Cobs)” value was found to be 0% in test [1] (setting [5]); 0% in test [1] (setting [4]); 0% in test [1] (setting [7]); 4% in test [2] (setting [6]); 0% in test [2] (setting [3]).

Take `N#Cc1c[nH]cc1-c1cccc2c1OC(F)(F)O2` [Fludioxonil]: the “Observed control in % (% Cobs)” value is 0% in test [1] (setting [5]); 0% in test [1] (setting [6]); 0% in test [1] (setting [3]); 25% in test [1] (setting [4]); 7% in test [2] (setting [5]); 9% in test [2] (setting [4]).

For `CCCC1COC(Cn2cncn2)(c2ccc(Cl)cc2Cl)O1` (stereo not drawn) [Propiconazole], the “Observed control in % (% Cobs)” value in test [1] (setting [6]) is on record as 0%; in test [2] (setting [5]), 12%; in test [2] (setting [3]), 11%.
